Experimental data taken from US6518278B1, “Carcinostatic substance for compatible administration, process of administrating same and process of rapidly inspecting same” (Debio Pharm S.A., priority 1994, dated 2003).
“And” between values parts separate entries of the source, which are not always exact repeats. Equal values may be shown once. “Also recorded” adds a separate entry of the source.

System: human leutecyte strain cell (RPMI-8402)
Experiment: Extinction effect of compatible administration of l-OHP and a compatible agent on tumor cells (compatible efficiency OE)
Format: cell-based
Conditions: for Compatible Effects of l-OHP and Compatible Agent, Simultaneous Administration: both added day 1
Procedure: In the evaluation of the extinction effect of the tumor cells of the respective combinations, a pure extinction effect produced by the compatible administration of the compatible agent and the l-OHP is calculated by subtracting an extinction effect of a control (no carcinostatic substance is employed).
The compatibly administration effect is calculated by employing an Equation (1) described later. When the value (%) calculated by this Equation is between 85 and 115%, the compatible administration effect is evaluated to be an additive effect. When the value is below 85%, it is evaluated to be below the additive effect. When the value is over 115%, it is evaluated to be a synergistic effect, ±15% is a reliability limit or a measurement error.
A target tumor cell was a human leutecyte strain cell (RPMI-8402 of Gibuko K.K.). To these cells was added blood serum of a cow embryo (15%, Gibuko K.K.) to prepare a cell floating liquid of which the number of the cells was 10^6/ml in a cultivation bottle (tradename; Sumiron of Sumitomo Bakelite o., Ltd.) having a volume of 6 ml. A plenty of the cultivation bottles having the cell floating liquid therein were prepared, and the following experiments were conducted while selecting one kind of a compatible agent among cisplatin, 5-FU, irinotecane, adriamycin, etoposide, mitomycin, mitoxantrone, bleomycin, vincristin and vindecin. The time schedules of the controls (no addition of medicines, addition of only the l-OHP and addition of only a compatible agent, and specified in the below items (1) to (4)) and of the compatible administration of the compatible agent and the l-OHP are shown in FIG. 10.
(1) No medicine was added (control).
(2) Only the l-OHP was added at a second day.
(3) A large amount of compatible agents were added at a first day ([…] of the cisplatin, 10 μg/ml of the 5-FU, 0.05 μg/ml of the adriamycin and 1 μg/ml of the etoposide, and for the comparison purpose, 0.05 μg/ml of the vincristin and 0.06 μg/ml of the vindecin). The adding amount of the irinotecano was fixed to 10 μg/ml, and the addition amount of the l-OHP was 5 μg/ml.
(4) A small amount of compatible agents were added at a first day (0.5 μg/ml of the cisplatin, 5 μg/ml of the 5-FU, 0.01 μg/ml of the adriamycin and 0.5 μg/ml of the etoposide, and for the comparison purpose, 0.01 μg/ml of the vincristin and 0.01 μg/ml of the vindecin). The adding amount of the irinotecane was fixed to 10 μg/ml, and the addition amount of the l-OHP was 1 μg/ml.
(5) The l-OHP and a large amount (the same as that of the above item (3) and so forth in the following items) of the compatible agents were simultaneously added at a first day.
(6) The l-OHP and a small amount (the same as that of the above item (4) and so forth in the following items) of the compatible agents were simultaneously added at a first day.
(7) The l-OHP was added at a first day and a large amount of the compatible agents were added at a second day.
(8) The l-OHP was added at a first day and a small amount of the compatible agents were added at a second day.
(9) The l-OHP was added at a first day and a large amount of the compatible agents were added at a third day.
(10) The l-OHP was added at a first day and a small amount of the compatible agents were added at a third day.
(11) The l-OHP was added at a first day and a large amount of the compatible agents were added at a fourth day.
(12) The l-OHP was added at a first day and a small amount of the compatible agents were added at a fourth day.
(13) A large amount of the compatible agents were added at a first day and the l-OHP was added at a second day.
(14) A small amount of the compatible agents were added at a first day and the l-OHP was added at a second day.
(15) A large amount of the compatible agents were added at a first day and the l-OHP was added at a third day.
(16) A small amount of the compatible agents were added at a first day and the l-OHP was added at a third day.

[1] = larger dosage of compatible agent (μg/ml: cisplatin 1, 5-FU 10, irinotecane 10, adriamycin 0.05, vincristin 0.05, vindecin 0.05, etoposide 1, bleomycin 10, mitoxantrone 0.1, mitomycine 1), l-OHP 1 μg/ml (5 μg/ml with irinotecane) added day 1
[2] = larger dosage of compatible agent (μg/ml: cisplatin 1, 5-FU 10, irinotecane 10, adriamycin 0.05, vincristin 0.05, vindecin 0.05, etoposide 1, bleomycin 10, mitoxantrone 0.1, mitomycine 1), l-OHP 1 μg/ml (5 μg/ml with irinotecane)
[3] = larger dosage of compatible agent added day 1 (μg/ml: cisplatin 1, 5-FU 10, irinotecane 10, adriamycin 0.05, vincristin 0.05, vindecin 0.05, etoposide 1, bleomycin 10, mitoxantrone 0.1, mitomycine 1), l-OHP 1 μg/ml (5 μg/ml with irinotecane)
[4] = smaller dosage of compatible agent (μg/ml: cisplatin 0.5, 5-FU 5, irinotecane 10, adriamycin 0.01, vincristin 0.01, vindecin 0.01, etoposide 0.5, bleomycin 1, mitoxantrone 0.05, mitomycine 0.5), l-OHP 1 μg/ml added day 1
[5] = smaller dosage of compatible agent (μg/ml: cisplatin 0.5, 5-FU 5, irinotecane 10, adriamycin 0.01, vincristin 0.01, vindecin 0.01, etoposide 0.5, bleomycin 1, mitoxantrone 0.05, mitomycine 0.5), l-OHP 1 μg/ml
[6] = smaller dosage of compatible agent added day 1 (μg/ml: cisplatin 0.5, 5-FU 5, irinotecane 10, adriamycin 0.01, vincristin 0.01, vindecin 0.01, etoposide 0.5, bleomycin 1, mitoxantrone 0.05, mitomycine 0.5), l-OHP 1 μg/ml

Compound	compatible administration effect with l-OHP, summary in words	compatible administration effect with l-OHP, summary in words (listed as 6-FU)	Compatible Effects of l-OHP and Compatible Agent, Time Lag Administration, Addition Administration of Compatible Agent day 2 [1]	Compatible Effects of l-OHP and Compatible Agent, Time Lag Administration, Addition Administration of Compatible Agent day 3 [1]	Compatible Effects of l-OHP and Compatible Agent, Time Lag Administration, Addition Administration of Compatible Agent day 4 [1]	Compatible Effects of l-OHP and Compatible Agent, Simultaneous Administration [2]	Compatible Effects of l-OHP and Compatible Agent, Time Lag Administration, Addition Administration of l-OHP day 2 [3]	Compatible Effects of l-OHP and Compatible Agent, Time Lag Administration, Addition Administration of l-OHP day 3 [3]	Compatible Effects of l-OHP and Compatible Agent, Time Lag Administration, Addition Administration of l-OHP day 4 [3]	effect as % of the expected value (compatible efficiency) (simultaneous administration with l-OHP, which dosage gives which value is not given)	Compatible Effects of l-OHP and Compatible Agent, Time Lag Administration, Addition Administration of Compatible Agent day 2 [4]	Compatible Effects of l-OHP and Compatible Agent, Time Lag Administration, Addition Administration of Compatible Agent day 3 [4]	Compatible Effects of l-OHP and Compatible Agent, Time Lag Administration, Addition Administration of Compatible Agent day 4 [4]	Compatible Effects of l-OHP and Compatible Agent, Simultaneous Administration [5]	Compatible Effects of l-OHP and Compatible Agent, Time Lag Administration, Addition Administration of l-OHP day 2 [6]	Compatible Effects of l-OHP and Compatible Agent, Time Lag Administration, Addition Administration of l-OHP day 3 [6]	Compatible Effects of l-OHP and Compatible Agent, Time Lag Administration, Addition Administration of l-OHP day 4 [6]
O=c1[nH]cc(F)c(=O)[nH]1 [5-FU, 5-fluorouracil]	twice an expected value; also recorded: synergistic effects can be obtained in almost all the administration conditions	the additive effect or the synergistic effect regardless of the administration method and the dosage in almost all the cases	• (•: Synergistic Effect)	• (•: Synergistic Effect)	• (•: Synergistic Effect)	• (•: Synergistic Effect)	• (•: Synergistic Effect)	• (•: Synergistic Effect)	• (•: Synergistic Effect)	180% and 150%	◯ (◯: Additive Effect)	• (•: Synergistic Effect)	• (•: Synergistic Effect)	• (•: Synergistic Effect)	• (•: Synergistic Effect)	◯ (◯: Additive Effect)	• (•: Synergistic Effect)
COc1cccc2c1C(=O)c1c(O)c3c(c(O)c1C2=O)C[C@@](O)(C(=O)CO)C[C@@H]3O[C@H]1C[C@H](N)[C@H](O)[C@H](C)O1 [adriamycin]	the additive effect or the synergistic effect regardless of the administration method and the dosage in almost all the cases; also recorded: synergistic effects can be obtained in almost all the combinations when the l-OHP is added later	–	Δ (Δ: Below Additive Effect)	◯ (◯: Additive Effect)	◯ (◯: Additive Effect)	◯ (◯: Additive Effect)	◯ (◯: Additive Effect)	• (•: Synergistic Effect)	• (•: Synergistic Effect)	–	Δ (Δ: Below Additive Effect)	• (•: Synergistic Effect)	◯ (◯: Additive Effect)	◯ (◯: Additive Effect)	• (•: Synergistic Effect)	◯ (◯: Additive Effect)	• (•: Synergistic Effect)
COc1cc([C@@H]2c3cc4c(cc3[C@@H](O[C@@H]3O[C@@H]5CO[C@@H](C)O[C@H]5[C@H](O)[C@H]3O)[C@H]3COC(=O)[C@H]23)OCO4)cc(OC)c1O [etoposide]	the additive effect or the synergistic effect regardless of the administration method and the dosage in almost all the cases; also recorded: synergistic effects can be obtained in almost all the combinations when the l-OHP is added later	–	◯ (◯: Additive Effect)	◯ (◯: Additive Effect)	Δ (Δ: Below Additive Effect)	◯ (◯: Additive Effect)	• (•: Synergistic Effect)	• (•: Synergistic Effect)	• (•: Synergistic Effect)	–	◯ (◯: Additive Effect)	• (•: Synergistic Effect)	◯ (◯: Additive Effect)	◯ (◯: Additive Effect)	• (•: Synergistic Effect)	• (•: Synergistic Effect)	• (•: Synergistic Effect)
